According to patent US20180000942A1, “COMPOSITIONS FOR DRUG ADMINISTRATION” (priority 2013, published 2018):
Values belong to the compound of their own block, whether it stands above or below them.

Key:
[1] = test system: blood glucose; test: Insulin eye drops with absorption enhancer in xylazine/ketamine anesthetized rats, blood glucose
[2] = Bioavailability of antisense oligonucleotide given intrajejunally; type: in vivo, Cynomolgus monkeys; conditions: AUC over 240 minutes relative to reference
Description: An approximately 7,000 Dalton antisense oligonucleotide (ASO) with a modified backbone (phosphorothioate oligonucleotide as described in U.S. Pat. No. 7,132,530) mixed with alkylglycoside tetradecyl-beta-D-maltoside (Intravail™), was administered to six Cynomolgus monkeys canulated into the jejunum at a dose of 10 mg/kg. The animals were fasted prior to administration. Test agents were dissolved in PBS buffer and injected through the cannula into the jejunum of each animal in a 1.5 mL volume or administered subcutaneously (s.c.) as noted in Table VIII.
The protocol involved a 3 way crossover in which each animal had the first 3 test agents in Table VIII administered on 3 different dates. There was a 1 week washout period between dosing dates. […] Analysis of the blood levels was conducted using quantitative analysis involving solid phase extraction using cationic polystyrene nanoparticles. […]
Quantitative analysis was performed with capillary gel electrophoresis of the extracted samples. […] Using the data obtained from CGE analysis, quantitation of phosphorothioate oligonucleotides was carried out. The amount of oligonucleotides in the samples (nON) was calculated using the following formula: […]
The relative bioavailabilities were determined as the ratio of each AUC divided by the AUC for the intravenously administered drug. […]

[3] = test system: blood glucose; test: Insulin eye drops with […] and nose drops with 0.5% tetradecyl maltoside, blood glucose; type: in vivo, rat; conditions: insulin nose drops with 0.5% tetradecyl maltoside added after 120 min
[4] = test system: human nasal epithelium; test: Irritation of nasal mucosa on daily intranasal administration; conditions: […] in OTC nasal saline, 33 days
[5] = New Zealand White, rabbit, in vivo
[6] = in vivo; conditions: other: buccal, 60 mg

Structure (SMILES): CCCCCCCCCCCCCCO[C@@H]1O[C@H](CO)[C@@H](O[C@H]2O[C@H](CO)[C@@H](O)[C@H](O)[C@H]2O)[C@H](O)[C@H]1O [Tetradecyl Maltoside, n-tetradecyl-4-O-α-D-glucopyranosyl-β-D-glucopyranoside]
effect as absorption enhancer for ocular insulin (blood glucose lowering), in words ([1]; 0.5% enhancer): effective
effect as absorption enhancer for ocular insulin (blood glucose lowering), in words ([1]; […] enhancer): effective
Average Bioavailability (n = 6) [2]: up to 18%
Blood Glucose ([3]; time 150 min): 74 mg/dL
Blood Glucose ([3]; time 165 min): 76 mg/dL
Blood Glucose ([3]; time 180 min): 68 mg/dL
irritation of the nasal mucosa [4]: no observable irritation

time to maximal concentration versus tablets without alkyl saccharides [5]: approximately one half the time
Structure (SMILES): COc1ccc2[nH]cc(CCNC(C)=O)c2c1 [melatonin, 5-methoxy-N-acetyltryptamine]

bioavailability [6]: ≥ 4%
Structure (SMILES): O=C(c1ccc(OCCN2CCCCC2)cc1)c1c(-c2ccc(O)cc2)sc2cc(O)ccc12 [raloxifene, Raloxifene]
